Key:
[1] = system: Breast cancer (MDA-MB-231) cells; experiment: Cell death by combination treatment with anti-cancer drug (MTT); format: cell-based; settings: Homo sapiens, MDA-MB-231, 24 h
Method: (§1) 3×10^3 Brain cancer (U-87MG), lung cancer (H1975), pancreatic cancer (Aspc-1), liver cancer (Hep G2), breast cancer (MDA-MB-231), and colon cancer (HCT116) cells were cultured in a 96-well plate for 24 hours under conditions of 37° C. and 5% Ca2, respectively. […] After the treatment was terminated, the cells were cultured for 24 hours under conditions of 37° C. and 5% CO2 again, 10 μl of 3-(4,5-dimethylthiazol-2-yl)-2,5-diphenyltetrazolium bromide reagent was added to each well and reacted for 1 hour. After the reaction was completed, the reagent was removed, 200 μl of dimethyl sulfoxide was added to each well, and the absorbance was measured to compare the degree of cell death.
(§2) Then, 10 μl of 3-(4,5-dimethylthiazol-2-yl)-2,5-diphenyltetrazolium bromide reagent was added to each well and reacted for 1 hour. After the reaction was completed, the reagent was removed, 200 μl of dimethyl sulfoxide was added to each well, and the absorbance was measured to confirm cell viability.

Caki-1 cells = experiment: Change over time in intracellular ADP-ribose, radiation versus ADP-ribose treatment (ELISA); format: cell-based; settings: Caki-1, 16 μM ADP-ribose, even after 24 hours; after radiation back to untreated level from 8 hours
Method: Brain cancer (U-87MG), kidney cancer (Caki-1), pancreatic cancer (AsPC-1), or breast cancer (MDA-MB-231) cells were cultured in a 6-well plate, respectively, and the cells were divided into the untreated group, the radiation-treated group, and the ADP-ribose-treated group. Irradiation was performed using an X-Rad 320 irradiator (Precision X-ray, North Branford, CT, USA), and cancer cells were treated with a total of 1, 2, and 5 Gy at a dose rate of 300 kVp and 150 cGy/min using an X-ray beam filter composed of 12.5 mA and 2.0 mm Al, respectively. Before treatment and at 4, 8, 16, and 24 hours after treatment, the medium was removed, the cells were washed with phosphate-buffered saline, and then RIPA buffer was added and the products were left on ice for 20 minutes. After scraping the cells, the cells were put in a centrifuge tube and centrifuged for 10 minutes at 10,000 g and 4° C. The supernatant was obtained, and 1% SDS was added, and then the reaction product was boiled at 100° C. for 5 minutes and cooled on ice. The supernatant was centrifuged again at 10,000 g and 4° C. for 10 minutes to obtain the final supernatant, and ADP-ribose was quantitatively analyzed using an ELISA analysis kit (Cell Biolabs, Inc., San Diego, CA, USA). […]

[2] = system: Brain cancer (U-87MG) cells; experiment: Xenograft model, combination with anti-cancer drug, tumor volume; format: in vivo, BALB/c nude mice; settings: U-87MG xenograft
Method: Brain (U-87MG), lung (H1975), pancreatic (AsPC-1), or liver (Hep G2) cells (1×10^7 cells) were inoculated into 5-week-old BALB/c nude mice on the back flank, respectively. Then, when tumors were grown to a volume of approximately 150 mm^3, the mice were divided into the control group (control), an anti-cancer drug alone treatment group, and a combination treatment group. […] The tumor size was measured every 6 days using a digital caliper, and the results of changes in tumor volume were compared by the group.
Brain cancer (U-87MG) cells (1×10^7) were inoculated into 5-week-old BALB/c nude mice on the back flank, and the mice were divided into three groups: the control group (Control), single intraperitoneal administration of 25 mg/kg of Avastin (ingredient name: bevacizumab), and combination administration of Avastin+10 mg/kg of ADP-ribose. When the tumors were grown to a volume of approximately 150 mm^3, Avastin was administered intraperitoneally twice a week, and ADP-ribose at 10 mg/kg was injected subcutaneously 3 times a week. The tumor size was measured using a digital caliper, and the results of changes in tumor volume were compared by the group.

[3] = system: Pancreatic cancer (AsPC-1) cells; experiment: Xenograft model, oral ADP-ribose, tumor volume; format: in vivo, BALB/c nude mice; settings: AsPC-1 xenograft, 5 times a week, control about 3194.3
Method: Pancreatic cancer (AsPC-1) or kidney cancer (Caki-1) cells (1×10^7 cells) were inoculated into 5-week-old BALB/c nude mice on the back flank, and the mice were grown up to approximately 150 mm^3 of the tumor volume. Then, three concentrations of ADP-ribose were administered subcutaneously, intravenously, and orally 3 times a week. The tumor size was measured every 6 days using a digital caliper, and the changes in tumor volume were compared for each group.
Pancreatic cancer (AsPC-1) cells (1×10^7) were inoculated into 5-week-old BALB/c nude mice on the back flank, and the mice were divided into four groups: the control group (Control) and groups administered orally with 10, 40, and 80 mg/kg of ADP-ribose. When the tumors were grown to a volume of approximately 150 mm^3, each concentration of ADP-ribose was orally administered 5 times a week. The tumor size was measured using a digital caliper, and the results of changes in tumor volume were compared by the group.

U-87MG cells = experiment: Cancer cell death verification (MTT cell viability); format: cell-based
Method: 3×10^3 Brain cancer (U-87MG), lung cancer (H1975), pancreatic cancer (Aspc-1), liver cancer (Hep G2), breast cancer (MDA-MB-231), colon cancer (HCT116), kidney cancer (Caki-1), gastric cancer (SNU-1) and ovarian cancer (OVCAR-3) cells were cultured in a 96-well plate under conditions of 37° C. and 5% CO2 for 24 hours, and then each cancer cell was treated with ADP-ribose at each concentration. After culturing for 24 hours under conditions of 37° C. and 5% CO2 again, 10 μl of 3-(4,5-dimethylthiazol-2-yl)-2,5-diphenyltetrazolium bromide reagent was added to each well and reacted for 1 hour. After the reaction was completed, the reagent was removed, 200 μl of dimethyl sulfoxide was added to each well, and the absorbance was measured to determine the concentration of half-lethality and maximum lethality compared to untreated cells.
3×10^3 U-87MG cells were cultured in a 96-well plate for 24 hours under conditions of 37° C. and 5% CO2, treated with ADP-ribose at final concentrations of 0.125, 0.25, 0.5, 1, 2, 4, 8, 16, and 32 μM, respectively, and cultured again for 24 hours under conditions of 37° C. and 5% CO2. Then, 10 μl of 3-(4,5-dimethylthiazol-2-yl)-2,5-diphenyltetrazolium bromide reagent was added to each well and reacted for 1 hour. After the reaction was completed, the reagent was removed, 200 μl of dimethyl sulfoxide was added to each well, and the absorbance was measured to confirm cell viability.

[4] = system: Pancreatic cancer (AsPC-1) cells; experiment: Cell death by combination treatment with anti-cancer drug (MTT); format: cell-based; settings: Homo sapiens, ASPC1, 24 h
Method: as §1, §2

[5] = system: Brain cancer (U-87MG) cells; experiment: Xenograft model, combination with radiation, tumor volume; format: in vivo, BALB/c nude mice; settings: U-87MG xenograft
Method: Brain cancer (U-87MG), pancreatic cancer (AsPC-1), breast cancer (MDA-MB-231), or kidney cancer (Caki-1) cells (1×10^7 cells) were inoculated into 5-week-old BALB/c nude mice on the back flank, respectively. Then, when tumors were grown to a volume of approximately 150 mm^3, the mice were divided into three groups: the control group (Control), 2 Gy dose of radiation alone, and a combination administration of 2 Gy dose of radiation+10 mg/kg of ADP-ribose (subcutaneous administration, 3 times a week). The irradiation was performed with an X-Rad 320 irradiator (Precision X-ray, North Branford, CT, USA), wherein the mice were placed by maintaining an appropriate distance from the radiation source for irradiation with a predetermined radiation dose. A lead shield was used to protect the body parts or organs from exposure to radiation, other than the cancerous part of the mouse. The irradiation was performed with a total of 2 Gy of radiation fractionated into two doses of 1 Gy each (for 2 days) at a dose rate of 300 kVp and 150 cGy/min using an X-ray beam filter composed of 12.5 mA and 2.0 mm Al. The tumor size was measured every 6 days using a digital caliper, and the results of changes in tumor volume were compared by the group.
Brain cancer (U-87MG) cells (1×10^7) were inoculated into 5-week-old BALB/c nude mice on the back flank, and the mice were divided into three groups: the control group, 2 Gy dose of radiation alone, and combination administration of 2 Gy dose radiation+10 mg/kg of ADP-ribose. When the tumors were grown to a volume of approximately 150 mm^3, 2 Gy dose of radiation was irradiated twice at 1 Gy each, and 10 mg/kg of ADP-ribose was injected subcutaneously 3 times a week. The tumor size was measured using a digital caliper, and the results of changes in tumor volume were compared by the group.

[6] = ADP-ribose 10 mg/kg s.c. in combination with Avastin 25 mg/kg, P<0.001
[7] = ADP-ribose 10 mg/kg s.c. + 2 Gy radiation, P<0.001

## Nc1ncnc2c1ncn2[C@@H]1O[C@H](COP(=O)(O)OP(=O)(O)OC[C@H]2O[C@@H](O)C(O)C2O)C(O)C1O (stereo partly drawn) [ADP-ribose, adenosine diphosphate ribose]
[1]
  viability at 3.2 µM: ~20%
Caki-1 cells
  amount of ADP-ribose in the cells over time compared to the control group: maintained a significant (P<0.001) increase
[2]; [6]
  reduction of tumor volume compared to the control group: about 87%
  reduction of tumor volume compared to the group treated with Avastin alone: about 79%
[2]; ADP-ribose 10 mg/kg subcutaneous 3 times a week in combination with Avastin 25 mg/kg, control about 2527.1
  final tumor volume: about 334.5 mm^3
[3]; 10 mg/kg oral
  final tumor volume: 1798.6 mm^3
[3]; 40 mg/kg oral
  final tumor volume: 1175.9 mm^3
[3]; 80 mg/kg oral
  final tumor volume: 1056.9 mm^3
U-87MG cells; Homo sapiens, U-87 MG, 24 h, read-out: half-lethal dose (concentration at which about half of the cells were killed)
  IC50: ~8 µM
U-87MG cells; U-87MG, 24 hours, MTT
  maximum lethal dose (concentration at which almost all cells were killed): 32 µM
U-87MG cells; U-87MG, ADP-ribose treated vs control, FIG. 2A
  cancer cell growth under a microscope: inhibited from growing and killed
[4]
  viability at 1.6 µM: ~1%
[5]; [7]
  reduction of tumor volume compared to the control group: about 71.5%
  reduction of tumor volume compared to the group treated with 2 Gy dose of radiation alone: about 50.7%
[5]; ADP-ribose 10 mg/kg subcutaneous 3 times a week + 2 Gy radiation, control about 2545.2, 2 Gy alone about 1472.1
  final tumor volume: about 725.2 mm^3

From patent US20230372382A1, “USE OF ADENOSINE DIPHOSPHATE RIBOSE FOR ADJUVANT THERAPY WITH RADIATION AND/OR ANTI-CANCER TREATMENT” (PearlsInMires Co., Ltd., priority 2021, published 2023)
